One molecule from patent publication US20110301217A1, “Selective Glycosidase Inhibitors and Uses Thereof” (priority 2008, published 2011) can be followed below.

In this test the target is T1, O-GlcNAcase (Homo sapiens, UniProt O60502).
T1 sequence (O60502 1-916): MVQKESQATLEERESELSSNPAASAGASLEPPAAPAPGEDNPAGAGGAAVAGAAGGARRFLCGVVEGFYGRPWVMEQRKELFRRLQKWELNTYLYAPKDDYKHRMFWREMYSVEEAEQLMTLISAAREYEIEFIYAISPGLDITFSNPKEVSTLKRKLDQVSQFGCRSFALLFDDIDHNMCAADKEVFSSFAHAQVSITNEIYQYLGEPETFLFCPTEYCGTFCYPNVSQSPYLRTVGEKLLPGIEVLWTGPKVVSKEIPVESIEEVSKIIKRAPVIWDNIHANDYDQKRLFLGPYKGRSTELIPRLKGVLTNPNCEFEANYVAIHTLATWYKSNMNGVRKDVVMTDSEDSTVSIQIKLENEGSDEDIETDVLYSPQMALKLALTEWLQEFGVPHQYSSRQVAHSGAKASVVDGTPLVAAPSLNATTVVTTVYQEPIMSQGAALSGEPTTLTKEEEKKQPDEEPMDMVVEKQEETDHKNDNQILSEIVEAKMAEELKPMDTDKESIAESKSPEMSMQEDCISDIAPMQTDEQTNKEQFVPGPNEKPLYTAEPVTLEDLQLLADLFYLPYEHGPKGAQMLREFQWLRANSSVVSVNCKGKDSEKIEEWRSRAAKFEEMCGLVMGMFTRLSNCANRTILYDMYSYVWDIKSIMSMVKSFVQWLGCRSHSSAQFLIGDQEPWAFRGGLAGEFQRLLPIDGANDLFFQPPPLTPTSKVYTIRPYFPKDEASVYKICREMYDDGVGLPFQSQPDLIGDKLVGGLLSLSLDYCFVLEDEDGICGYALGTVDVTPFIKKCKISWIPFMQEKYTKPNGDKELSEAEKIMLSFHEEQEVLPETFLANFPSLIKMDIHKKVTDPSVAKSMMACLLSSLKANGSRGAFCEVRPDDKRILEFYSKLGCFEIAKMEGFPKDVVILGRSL
Description: Assay for determination of KI values for inhibition of O-GlcNAcase activity (pNP-GlcNAc substrate). It is filed as biochemical. The conditions noted are these: PBS pH 7.4, 0.5 mM pNP-GlcNAc, 37° C., Dixon plots. Here is the method: Assay for Determination of KI Values for Inhibition of O-GlcNAcase Activity
Experimental procedure for kinetic analyses: Enzymatic reactions are carried out in PBS buffer (pH 7.4) using pNP-GlcNAc as a substrate (0.5 mM) and monitored continuously at 37° C. at 400 nm using a Cary 3E UV-VIS spectrophotometer equipped with a Peltier temperature controller. Reactions are pre-heated in a 500 μL quartz cuvette for approximately 5 minutes followed by addition of 10 μL enzyme via syringe (final enzyme concentration 0.002 mg/mL). Reaction velocities are determined by linear regression of the linear region of the reaction progress curve between the first and third minutes. An inhibitor concentration range of 1/5 to 5 times KI is used in each case.
All KI values are determined using linear regression of Dixon plots.

For the molecule `CC(=O)NC[C@H]1N[C@H](CO)[C@@H](O)[C@@H]1O` [Compound 2, N-(((2R,3R,4R,5R)-3,4-dihydroxy-5-(hydroxymethyl)pyrrolidin-2-yl)methyl)acetamide], the Ki (commonly the dissociation constant of the complex between target and ligand, obtained from inhibition or displacement) amounted to 850 nM.
